In the NIST ThermoML archive (doi:10.1021/je0302304):

Experiment: xn = mol fraction of the nth substance listed
Conditions: 101.32 kPa, Liquid

COCCOCCOCCOC [2,5,8,11-tetraoxadodecane] + CCO
mass density [kg/m3]
Conditions | 288.15 K | 298.15 K | 308.15 K | 318.15 K
x1 = 0.0045 | 796.7 | 788.2 | 779.5 | 770.6
x1 = 0.0085 | 799.3 | 790.7 | 782 | 773.1
x1 = 0.0125 | 801.7 | 793.2 | 784.4 | 775.5
x1 = 0.0165 | 804.2 | 795.6 | 786.8 | 778
x1 = 0.0205 | 806.6 | 798 | 789.2 | 780.3
x1 = 0.0305 | 812.4 | 803.7 | 794.9 | 786
x1 = 0.05 | 823 | 814.2 | 805.4 | 796.4
x1 = 0.1 | 846.7 | 837.7 | 828.8 | 819.7
x1 = 0.15 | 866.4 | 857.3 | 848.3 | 839
x1 = 0.2 | 882.9 | 873.6 | 864.5 | 855.2
x1 = 0.25 | 896.9 | 887.7 | 878.6 | 869.2
x1 = 0.3 | 909.2 | 900 | 890.7 | 881.4
x1 = 0.35 | 919.8 | 910.5 | 901.3 | 891.9
x1 = 0.4 | 929.2 | 919.8 | 910.5 | 901.1
x1 = 0.4499 | 937.4 | 928 | 918.6 | 909.2
x1 = 0.5 | 944.8 | 935.3 | 925.9 | 916.4
x1 = 0.55 | 951.4 | 941.9 | 932.4 | 922.9
x1 = 0.6 | 957.3 | 947.7 | 938.3 | 928.8
x1 = 0.65 | 962.7 | 953.1 | 943.7 | 934.2
x1 = 0.7 | 967.5 | 958 | 948.6 | 939
x1 = 0.75 | 972 | 962.4 | 953 | 943.5
x1 = 0.7999 | 976.1 | 966.5 | 957.1 | 947.5
x1 = 0.8499 | 979.9 | 970.3 | 960.8 | 951.3
x1 = 0.8998 | 983.4 | 973.8 | 964.3 | 954.8
x1 = 0.9498 | 986.7 | 977.1 | 967.6 | 958.1
x1 = 1 | 989.7 | 980.1 | 970.7 | 961.1

COCCOCCOCCOCCOC [2,5,8,11,14-pentaoxapentadecane] + CCO
mass density [kg/m3]
Conditions | 288.15 K | 298.15 K | 308.15 K | 318.15 K
x1 = 0.0045 | 797.9 | 789.4 | 780.7 | 771.9
x1 = 0.0085 | 801.4 | 792.9 | 784.2 | 775.3
x1 = 0.0125 | 804.8 | 796.3 | 787.6 | 778.7
x1 = 0.0165 | 808.2 | 799.6 | 790.9 | 782
x1 = 0.0205 | 811.5 | 802.9 | 794.2 | 785.3
x1 = 0.0305 | 819.5 | 810.8 | 802 | 793.1
x1 = 0.05 | 833.6 | 824.9 | 816.1 | 807.1
x1 = 0.1 | 864.1 | 855.1 | 846.2 | 837.1
x1 = 0.15 | 888 | 878.9 | 869.9 | 860.7
x1 = 0.2 | 907.3 | 898.1 | 889.1 | 879.9
x1 = 0.25 | 923.3 | 914.1 | 905 | 895.7
x1 = 0.3 | 936.6 | 927.4 | 918.2 | 908.9
x1 = 0.35 | 947.9 | 938.6 | 929.5 | 920.2
x1 = 0.4 | 957.6 | 948.3 | 939.2 | 929.8
x1 = 0.45 | 966 | 956.7 | 947.5 | 938.2
x1 = 0.5 | 973.4 | 964.1 | 954.9 | 945.5
x1 = 0.55 | 979.9 | 970.6 | 961.3 | 952
x1 = 0.6 | 985.7 | 976.3 | 967.1 | 957.8
x1 = 0.6499 | 990.9 | 981.5 | 972.3 | 963
x1 = 0.7 | 995.6 | 986.2 | 977 | 967.6
x1 = 0.7498 | 999.8 | 990.4 | 981.2 | 971.9
x1 = 0.7999 | 1003.6 | 994.2 | 985 | 975.6
x1 = 0.8499 | 1007 | 997.7 | 988.4 | 979.1
x1 = 0.8997 | 1010.2 | 1000.9 | 991.6 | 982.4
x1 = 0.9496 | 1013.2 | 1003.8 | 994.6 | 985.3
x1 = 1 | 1016 | 1006.6 | 997.4 | 988.1

COCCOC [1,2-dimethoxyethane] + CCO
mass density [kg/m3]
Conditions | 288.15 K | 298.15 K | 308.15 K | 318.15 K
x1 = 0.0045 | 794.5 | 786 | 777.3 | 768.5
x1 = 0.0086 | 795.2 | 786.6 | 777.9 | 769
x1 = 0.0125 | 795.8 | 787.1 | 778.4 | 769.6
x1 = 0.0165 | 796.4 | 787.7 | 779 | 770.1
x1 = 0.0205 | 797 | 788.3 | 779.6 | 770.7
x1 = 0.0305 | 798.5 | 789.8 | 781 | 772
x1 = 0.05 | 801.3 | 792.5 | 783.6 | 774.6
x1 = 0.1 | 807.9 | 799 | 790 | 780.7
x1 = 0.15 | 814.2 | 805 | 795.8 | 786.3
x1 = 0.2 | 819.9 | 810.6 | 801.2 | 791.5
x1 = 0.25 | 825.2 | 815.7 | 806.1 | 796.3
x1 = 0.3 | 830.1 | 820.5 | 810.7 | 800.7
x1 = 0.35 | 834.6 | 824.9 | 815 | 804.8
x1 = 0.4 | 838.8 | 829 | 818.9 | 808.7
x1 = 0.45 | 842.7 | 832.8 | 822.6 | 812.2
x1 = 0.5 | 846.4 | 836.3 | 826 | 815.5
x1 = 0.55 | 849.8 | 839.6 | 829.2 | 818.6
x1 = 0.6 | 853 | 842.7 | 832.1 | 821.5
x1 = 0.6499 | 856 | 845.5 | 834.9 | 824.1
x1 = 0.7 | 858.7 | 848.2 | 837.5 | 826.6
x1 = 0.7499 | 861.3 | 850.7 | 839.9 | 829
x1 = 0.7999 | 863.7 | 853.1 | 842.2 | 831.2
x1 = 0.85 | 866.1 | 855.4 | 844.5 | 833.4
x1 = 0.9 | 868.3 | 857.5 | 846.6 | 835.4
x1 = 0.9499 | 870.4 | 859.5 | 848.5 | 837.3
x1 = 1 | 872.4 | 861.5 | 850.4 | 839.2

COCCOCCOC [2,5,8-trioxanonane] + CCO
mass density [kg/m3]
Conditions | 288.15 K | 298.15 K | 308.15 K | 318.15 K
x1 = 0.0045 | 795.6 | 787 | 778.4 | 769.6
x1 = 0.0085 | 797.1 | 788.6 | 779.9 | 771.1
x1 = 0.0125 | 798.7 | 790.1 | 781.5 | 772.6
x1 = 0.0165 | 800.3 | 791.7 | 783 | 774.1
x1 = 0.0205 | 801.8 | 793.2 | 784.4 | 775.6
x1 = 0.0305 | 805.5 | 796.9 | 788.1 | 779.2
x1 = 0.05 | 812.6 | 803.8 | 795 | 786
x1 = 0.1 | 828.7 | 819.7 | 810.7 | 801.5
x1 = 0.15 | 842.6 | 833.6 | 824.5 | 815.1
x1 = 0.2 | 855 | 845.8 | 836.5 | 827.1
x1 = 0.25 | 865.9 | 856.6 | 847.3 | 837.8
x1 = 0.3 | 875.7 | 866.3 | 856.9 | 847.3
x1 = 0.35 | 884.5 | 875 | 865.5 | 855.8
x1 = 0.4 | 892.4 | 882.9 | 873.2 | 863.5
x1 = 0.45 | 899.6 | 889.9 | 880.2 | 870.5
x1 = 0.4999 | 906 | 896.4 | 886.7 | 876.8
x1 = 0.55 | 912 | 902.3 | 892.5 | 882.6
x1 = 0.5999 | 917.4 | 907.7 | 897.8 | 887.9
x1 = 0.65 | 922.5 | 912.6 | 902.8 | 892.8
x1 = 0.6999 | 927.1 | 917.2 | 907.3 | 897.3
x1 = 0.7499 | 931.3 | 921.4 | 911.5 | 901.5
x1 = 0.7999 | 935.3 | 925.4 | 915.4 | 905.4
x1 = 0.8499 | 939 | 929 | 919.1 | 909
x1 = 0.8998 | 942.4 | 932.4 | 922.5 | 912.5
x1 = 0.9498 | 945.7 | 935.7 | 925.7 | 915.7
x1 = 1 | 948.6 | 938.7 | 928.7 | 918.6
